Experimental data published in patent publication US10882860B2, “Treatment of osteoarthritis” (Samumed, LLC, priority 2015, dated 2021).

Legend:
[1] = system: chondrogenic and osteogenic gene expression in human MSCs; test: Chondrogenic and osteogenic gene expression, qRT-PCR in human MSCs; format: cell-based; conditions: 10 nM and 30 nM, 21 days
Procedure: Human MSCs were plated in 10 cm dishes in chondrogenic induction medium (Lonza; DMEM, dexamethasone, ascorbate, insulin-transferrin-selenium [ITS supplement], gentamycin-amphotericin [GA-1000], sodium pyruvate, proline and L-glutamine) and treated with the compound of Formula (I) in DMSO (10 nM and 30 nM) or TGF-β3 (20 μg/mL) as a positive control. Cells were incubated at 37° C., 5% CO2 for 21 days, with media changes every 5 days. Cells were pelleted and washed, and total RNA was isolated and purified using RNeasy Plus Mini Kit (Qiagen). cDNA was synthesized from 1 μg of total RNA using QuantiTect Reverse Transcription kit (Qiagen). qRT-PCR was performed with QuantiTect SYBR Green PCR Kit (Qiagen) and gene-specific primers, using CFX384 thermal cycler (Biorad). Transcripts were quantitated by comparative Ct method and normalized to endogenous controls, β-actin and GAPDH. Fold changes were normalized to DMSO treated cells.

[2] = system: rat models of osteoarthritis (ACLT and pMMx); test: Efficacy of suspension compositions compared to a solution composition in rat OA model; format: in vivo, rats
Procedure: The efficacy of suspension compositions of the compound of Formula (I) (Form 1) as compared to a solution composition of the compound of Formula (I) in rat models of osteoarthritis (OA) was determined using a solution (final IA dose of 3 μg solution) and 0.1 μg and 0.3 μg suspension compositions of the compound of Formula (I) (Form 1).
The rats were treated with final dose levels of either a 0.1 μg or 0.3 μg suspension or a 3 μg solution of the compound of Formula (I). Histology score of cartilage integrity in the knee was the readout.

[3] = Phase 1 clinical study: pharmacokinetics; format: in vivo; conditions: human; cohorts 1, 2, and 3 (0.03, 0.07, 0.23 mg); 0, 4, 24 hours, Weeks 4 and 12; BQL
Source text: (§1) The study was a first-in-human, multicenter, 24-week, placebo-controlled, single-dose, dose-escalation safety study of a Wnt pathway inhibitor in subjects suffering from moderate to severe symptomatic knee OA. The sample size was 20 subjects (randomized 4:1, 16 active: 4 placebo) per dosing cohort. Inclusion criteria included: Age, 50-75 years; Western Ontario and McMaster Universities Arthritis Index (WOMAC) Total score, 36-72 (out of 96); Kellgren-Lawrence grade, 2 or 3; and a willingness to omit pain medication for 24 hours prior to pain assessments. Exclusion criteria included: BMI>40; and treatment with IA steroids within 2 months or HA derivatives within 6 months prior to injection. A full list of the inclusion and exclusion criteria for this study can be found on clinicaltrials.gov (NCT02095548).
The dosing sequence included suspension compositions of either 0.03 mg, 0.07 mg, or 0.23 mg of the compound of Formula (I) (Form 1) per 2 mL injection in a vehicle containing 0.5% carboxymethylcellulose sodium and 0.05% polysorbate 80 in pH 7.4 phosphate buffered saline. […]
PK samples were collected at 0, 4, and 24 hours post dose, and at Weeks 4 and 12. All subjects in cohorts 1, 2, and 3 had levels below limits of quantitation (BQL<0.100 ng/mL) at all recorded time points.

[4] = system: moderate-to-severe symptomatic knee OA subjects; test: Phase 1 clinical study: efficacy (WOMAC, Physician Global Assessment, strict OARSI responders); format: in vivo, human; conditions: for decrease in median WOMAC total score from baseline: FIG. 24B; for decrease in mean WOMAC total score [0-96] from baseline: FIG. 24A
Source text: as §1
The dosing sequence included suspension compositions of either 0.03 mg, 0.07 mg, or 0.23 mg of the compound of Formula (I) (Form 1) per 2 mL injection in a vehicle containing 0.5% carboxymethylcellulose sodium and 0.05% polysorbate 80 in pH 7.4 phosphate buffered saline. The placebo contained only the diluent of 0.5% carboxymethylcellulose sodium and 0.05% polysorbate 80 in pH 7.4 phosphate buffered saline. The subjects were given a single, intra-articular injection in the target knee on Treatment Day 1 and participated in a follow-up period of 24 weeks.
Safety, pharmacokinetics (PK), biomarker, and efficacy data were collected at baseline and during the 24-week follow-up period. Safety data included adverse events (AEs), concomitant medications, clinical laboratory sampling, medical history, vital signs, ECGs, hip bone density (DXA) analysis, qCT of the target knee, and evaluation of bone edema via MM. For PK data, samples were collected 0, 4, and 24 hours post dose, and at Weeks 4 and 12. Biomarker data included data for procollagen type 1 N-propeptide (P1NP), beta C-terminal telopeptide of type 1 collagen (βCTX), and cartilage oligomeric matrix protein (COMP). Efficacy data included measurements of WOMAC Total score, WOMAC Function and Pain subscores, pain VAS, Physician Global Assessment of Disease Activity, MM, and radiographs. Efficacy assessments were used to determine the percentage of OMERACT-OARSI “strict” responders. Exploratory analyses of efficacy outcomes were conducted using a baseline-adjusted repeated measures analysis of covariance (ANCOVA) in the Intention-to-Treat (ITT) population. The sponsor was unblinded after Week 12 for each cohort; site investigators remained blinded. All AEs reported in this study were […]. Investigator opinion regarding whether AEs were related to the compound of Formula (I) was also collected for informational purposes.
Strict responders were classified by having either a WOMAC Function subscore improvement of ≥50% with a corresponding Function score improvement of ≥20 points (scaled to [0-100]), or a WOMAC Pain subscore improvement of ≥50% with a corresponding Pain score improvement of ≥20 points (scaled to [0-100]).

## CC(C)CC(=O)Nc1cncc(-c2ccc3[nH]nc(-c4nc5c(-c6cccc(F)c6)cncc5[nH]4)c3c2)c1 [compound of Formula (I)]
[1]; FIG. 18A
  chondrogenic gene expression: upregulated
[1]; FIG. 18B
  osteogenic gene expression: downregulated
[2]; 0.1 μg suspension, 3 months, did not reach statistical significance
  histology score of cartilage integrity in the knee (vs. vehicle): beneficial effect
[2]; 0.3 μg suspension, 3 months
  histology score of cartilage integrity in the knee (vs. vehicle): significant difference
[2]; 3 μg solution, 2 months, did not reach statistical significance
  histology score of cartilage integrity in the knee (vs. vehicle): beneficial effect
[3]
  plasma level (PK samples): < 0.100 ng/mL
[4]; 0.03 mg cohort, N 17
  WOMAC function [0-68], Week 12 Actual [Mean (SD)]: 20.3
  WOMAC function [0-68], Week 12 Change from baseline [Mean (SD)]: −18.4
  WOMAC pain [0-20], Week 12 Actual [Mean (SD)]: 6.3
  WOMAC pain [0-20], Week 12 Change from baseline [Mean (SD)]: −4.4
[4]; 0.03 mg cohort
  decrease in median WOMAC total score from baseline: greater than 25
[4]; 0.03 mg cohort, FIG. 25B
  median decrease in physician global assessment from baseline: about 48
[4]; 0.07 mg cohort, N 16
  WOMAC function [0-68], Week 12 Actual [Mean (SD)]: 18.4
  WOMAC function [0-68], Week 12 Change from baseline [Mean (SD)]: −19.2
  WOMAC pain [0-20], Week 12 Actual [Mean (SD)]: 5.3
  WOMAC pain [0-20], Week 12 Change from baseline [Mean (SD)]: −5.6
[4]; 0.07 mg cohort
  decrease in mean WOMAC total score [0-96] from baseline: about 27
  decrease in median WOMAC total score from baseline: greater than 25
[4]; 0.07 mg cohort, Week 12, P=0.081
  odds ratio (OR) of strict OARSI response vs placebo: 4.2
[4]; 0.07 mg cohort, Week 12, placebo 42%
  percentage of strict OARSI responders: 75%
[4]; 0.23 mg cohort, N 16
  WOMAC function [0-68], Week 12 Actual [Mean (SD)]: 22.6
  WOMAC function [0-68], Week 12 Change from baseline [Mean (SD)]: −17.8
  WOMAC pain [0-20], Week 12 Actual [Mean (SD)]: 5.8
  WOMAC pain [0-20], Week 12 Change from baseline [Mean (SD)]: −5.7
[4]; all cohorts (0.03, 0.07, 0.23 mg)
  decrease in mean WOMAC total score [0-96] from baseline: ≥ 23
[4]; all cohorts (0.03, 0.07, 0.23 mg), FIG. 25A
  decrease in mean physician global assessment score [0-100] from baseline: ≥ 30
